# Reference: the CheMixHub viscosity set
# ± gives the uncertainty stated by the source.
# Experiment: xn = mol fraction of the nth substance listed
structure (smiles),measurement,setting,value
CCCN + CCC(C)O,viscosity,"303.15 K, 101 kPa, x1 = 0.008438",2.439 ± 0.016 mPa·s
same,viscosity,"303.15 K, 101 kPa, x1 = 0.01874",2.408 ± 0.016 mPa·s
same,viscosity,"303.15 K, 101 kPa, x1 = 0.02903",2.377 ± 0.016 mPa·s
same,viscosity,"303.15 K, 101 kPa, x1 = 0.04186",2.343 ± 0.015 mPa·s
same,viscosity,"303.15 K, 101 kPa, x1 = 0.0458",2.329 ± 0.015 mPa·s
same,viscosity,"303.15 K, 101 kPa, x1 = 0.05767",2.3 ± 0.015 mPa·s
same,viscosity,"303.15 K, 101 kPa, x1 = 0.06786",2.277 ± 0.015 mPa·s
same,viscosity,"303.15 K, 101 kPa, x1 = 0.07593",2.253 ± 0.015 mPa·s
same,viscosity,"303.15 K, 101 kPa, x1 = 0.08515",2.224 ± 0.015 mPa·s
CN1CCCN(C)C1=O + CCCCCCCCn1cc[n+](C)c1.[Cl-],viscosity,"308.15 K, 100 kPa, x2 = 0.0999",7.275 ± 0.31 mPa·s
same,viscosity,"308.15 K, 100 kPa, x2 = 0.2997",61.15 ± 2.6 mPa·s
CCCCOC(C)=O + CC#N,viscosity,"303.15 K, 101.33 kPa, x2 = 0.0981",0.6208 ± 0.0044 mPa·s
same,viscosity,"303.15 K, 101.33 kPa, x2 = 0.2003",0.5981 ± 0.0043 mPa·s
same,viscosity,"303.15 K, 101.33 kPa, x2 = 0.3003",0.5737 ± 0.0042 mPa·s
same,viscosity,"303.15 K, 101.33 kPa, x2 = 0.403",0.5485 ± 0.0041 mPa·s
same,viscosity,"303.15 K, 101.33 kPa, x2 = 0.5026",0.5195 ± 0.004 mPa·s
same,viscosity,"303.15 K, 101.33 kPa, x2 = 0.5972",0.4884 ± 0.0039 mPa·s
same,viscosity,"303.15 K, 101.33 kPa, x2 = 0.6977",0.4463 ± 0.0037 mPa·s
same,viscosity,"303.15 K, 101.33 kPa, x2 = 0.7987",0.4071 ± 0.0035 mPa·s
same,viscosity,"303.15 K, 101.33 kPa, x2 = 0.8985",0.3669 ± 0.0034 mPa·s
CC(C)c1ccccc1 + Cc1ccccc1,viscosity,"293.15 K, 101.33 kPa, x2 = 0.2846",0.727 ± 0.015 mPa·s
same,viscosity,"293.15 K, 101.33 kPa, x2 = 0.5253",0.676 ± 0.01 mPa·s
same,viscosity,"293.15 K, 101.33 kPa, x2 = 0.6998",0.644 ± 0.008 mPa·s
same,viscosity,"293.15 K, 101.33 kPa, x2 = 0.856",0.612 ± 0.006 mPa·s
same,viscosity,"298.15 K, 101.3 kPa, x2 = 0.1169",0.6671 ± 0.0056 mPa·s
same,viscosity,"298.15 K, 101.3 kPa, x2 = 0.2596",0.643 ± 0.0055 mPa·s
same,viscosity,"298.15 K, 101.3 kPa, x2 = 0.3951",0.6203 ± 0.0053 mPa·s
same,viscosity,"298.15 K, 101.3 kPa, x2 = 0.508",0.6016 ± 0.0052 mPa·s
same,viscosity,"298.15 K, 101.3 kPa, x2 = 0.605",0.5854 ± 0.0051 mPa·s
same,viscosity,"298.15 K, 101.3 kPa, x2 = 0.7505",0.5615 ± 0.0049 mPa·s
same,viscosity,"298.15 K, 101.3 kPa, x2 = 0.8459",0.5459 ± 0.0048 mPa·s
same,viscosity,"298.15 K, 101.3 kPa, x2 = 0.9474",0.5288 ± 0.0047 mPa·s
same,viscosity,"303.15 K, 101.33 kPa, x2 = 0.2846",0.638 ± 0.013 mPa·s
same,viscosity,"303.15 K, 101.33 kPa, x2 = 0.5253",0.597 ± 0.009 mPa·s
same,viscosity,"303.15 K, 101.33 kPa, x2 = 0.6998",0.57 ± 0.007 mPa·s
same,viscosity,"303.15 K, 101.33 kPa, x2 = 0.856",0.544 ± 0.005 mPa·s
same,viscosity,"313.15 K, 101.33 kPa, x2 = 0.2846",0.569 ± 0.011 mPa·s
same,viscosity,"313.15 K, 101.33 kPa, x2 = 0.5253",0.533 ± 0.008 mPa·s
same,viscosity,"313.15 K, 101.33 kPa, x2 = 0.6998",0.509 ± 0.006 mPa·s
same,viscosity,"313.15 K, 101.33 kPa, x2 = 0.856",0.485 ± 0.005 mPa·s
same,viscosity,"323.15 K, 101.33 kPa, x2 = 0.2846",0.507 ± 0.01 mPa·s
same,viscosity,"323.15 K, 101.33 kPa, x2 = 0.5253",0.477 ± 0.007 mPa·s
same,viscosity,"323.15 K, 101.33 kPa, x2 = 0.6998",0.458 ± 0.006 mPa·s
same,viscosity,"323.15 K, 101.33 kPa, x2 = 0.856",0.437 ± 0.005 mPa·s
CCCCOC(C)=O + CCCCCCCCC,viscosity,"298.15 K, 101.3 kPa, x1 = 0.0459",0.6602 ± 0.006 mPa·s
same,viscosity,"298.15 K, 101.3 kPa, x1 = 0.1339",0.6474 ± 0.0059 mPa·s
same,viscosity,"298.15 K, 101.3 kPa, x1 = 0.2324",0.6291 ± 0.0058 mPa·s
same,viscosity,"298.15 K, 101.3 kPa, x1 = 0.3814",0.6318 ± 0.0058 mPa·s
same,viscosity,"298.15 K, 101.3 kPa, x1 = 0.4218",0.6304 ± 0.0058 mPa·s
same,viscosity,"298.15 K, 101.3 kPa, x1 = 0.4836",0.6314 ± 0.0058 mPa·s
same,viscosity,"298.15 K, 101.3 kPa, x1 = 0.5989",0.632 ± 0.0058 mPa·s
same,viscosity,"298.15 K, 101.3 kPa, x1 = 0.658",0.6382 ± 0.0059 mPa·s
same,viscosity,"298.15 K, 101.3 kPa, x1 = 0.7574",0.6466 ± 0.0059 mPa·s
same,viscosity,"298.15 K, 101.3 kPa, x1 = 0.8386",0.6563 ± 0.006 mPa·s
same,viscosity,"298.15 K, 101.3 kPa, x1 = 0.9486",0.6723 ± 0.0061 mPa·s
Clc1ccccc1Cl + CCNc1ccccc1,viscosity,"303.15 K, 101 kPa, x2 = 0.0789",1.286 ± 0.013 mPa·s
same,viscosity,"303.15 K, 101 kPa, x2 = 0.1156",1.309 ± 0.013 mPa·s
same,viscosity,"303.15 K, 101 kPa, x2 = 0.1659",1.338 ± 0.013 mPa·s
same,viscosity,"303.15 K, 101 kPa, x2 = 0.2569",1.391 ± 0.014 mPa·s
same,viscosity,"303.15 K, 101 kPa, x2 = 0.3287",1.43 ± 0.014 mPa·s
same,viscosity,"303.15 K, 101 kPa, x2 = 0.3968",1.467 ± 0.014 mPa·s
same,viscosity,"303.15 K, 101 kPa, x2 = 0.4925",1.516 ± 0.015 mPa·s
same,viscosity,"303.15 K, 101 kPa, x2 = 0.5421",1.541 ± 0.015 mPa·s
same,viscosity,"303.15 K, 101 kPa, x2 = 0.6325",1.584 ± 0.015 mPa·s
same,viscosity,"303.15 K, 101 kPa, x2 = 0.6897",1.611 ± 0.015 mPa·s
same,viscosity,"303.15 K, 101 kPa, x2 = 0.7659",1.646 ± 0.015 mPa·s
same,viscosity,"303.15 K, 101 kPa, x2 = 0.8425",1.678 ± 0.016 mPa·s
same,viscosity,"303.15 K, 101 kPa, x2 = 0.9121",1.709 ± 0.016 mPa·s
same,viscosity,"308.15 K, 101 kPa, x2 = 0.0789",1.19 ± 0.013 mPa·s
same,viscosity,"308.15 K, 101 kPa, x2 = 0.1156",1.21 ± 0.013 mPa·s
same,viscosity,"308.15 K, 101 kPa, x2 = 0.1659",1.234 ± 0.013 mPa·s
same,viscosity,"308.15 K, 101 kPa, x2 = 0.2569",1.277 ± 0.013 mPa·s
same,viscosity,"308.15 K, 101 kPa, x2 = 0.3287",1.309 ± 0.014 mPa·s
same,viscosity,"308.15 K, 101 kPa, x2 = 0.3968",1.339 ± 0.014 mPa·s
same,viscosity,"308.15 K, 101 kPa, x2 = 0.4925",1.379 ± 0.014 mPa·s
same,viscosity,"308.15 K, 101 kPa, x2 = 0.5421",1.399 ± 0.014 mPa·s
same,viscosity,"308.15 K, 101 kPa, x2 = 0.6325",1.434 ± 0.014 mPa·s
same,viscosity,"308.15 K, 101 kPa, x2 = 0.6897",1.454 ± 0.015 mPa·s
same,viscosity,"308.15 K, 101 kPa, x2 = 0.7659",1.48 ± 0.015 mPa·s
same,viscosity,"308.15 K, 101 kPa, x2 = 0.8425",1.508 ± 0.015 mPa·s
same,viscosity,"308.15 K, 101 kPa, x2 = 0.9121",1.531 ± 0.015 mPa·s
